From US12161114B2, “Overpowered ABA receptor agonists” (The Regents of the University of California, priority 2018, dated 2024) come the findings set out here.

pEC50: −log10 of the molar value.

The subject of assay [1] is panel of recombinant ABA receptors; PP2C HAB1. The assay can be described thus: receptor-mediated PP2C inhibition assay, dose response, umbelliferone substrate. The assay is classed as biochemical, Arabidopsis. The conditions noted are these: 4 nM to 50 μM dose response. As to the method: Each ligand was tested at concentrations spanning 7 points between 4 nM and 50 μM in triplicate in a reaction buffer containing 100 mM Tris-HCl-pH7.9, 100 mM NaCl, 30 μg/ml BSA, 0.1% 2-mercaptoethanol, 25 nM ΔN-HAB1, 1 mM 4-methylumbelliferyl phosphate, and different recombinant ABA receptors at 50 nM or 300 nM (for PYL9 or PYL11). The substrate was added ˜20 minutes after the other components had been mixed and fluorescence data collected. Control carrier solvent-only wells were included as a reference and %-activity for tested compounds calculated relative to this control. The dose response data (PP2C activity versus agonist concentration) was fit to a log (inhibitor) vs. response-(variable slope) model using non-linear regression to infer the IC50S, using GraphPad Prism 6.0, to yield the IC50 values shown in FIG. 6.
The potency and selectivity of ligands 2b, 2e-f was established by testing their ability to activate multiple ABA receptor subtypes using the fluorescence based phosphasted assay as outlined in example 2 at a range of concentrations (4 nM to 50 μM). In addition, we compared ligand potency to ABA, quinabactin and a recently described fluorinated quinabactin analog AMF4, which is reported to have improved potency in comparison toe quinabactin. To conduct the assays purified recombinant receptors were tested at 50 nM or, in the a cases of PYL9 and PYL11, 300 nM and 25 nM ΔN-HAB1. The PP2C-activity dose response data obtained was fit to a log (inhibitor) vs response-(variable slope) model using non-linear regression to infer the IC50S, using GraphPad Prism 6.0, to yield IC50 values as shown in FIG. 12A. […] Moreover, the installation of a single cyclopropyl group ortho to the nitrile (analog 2e) provided a further boost in potency, dramatically so for all subfamily III receptors, PYL4 and PYL11. […] Furthermore, the installation of a second cyclopropyl substituent (analog 2f) provides an even further boot in activity on subfamily III receptors, which comes at the expense of reduced potency on subfamily I receptors. […] 2f is therefore an unusually overpowered ABA receptor agonist, which we refer to as opabactin (Opa).

Assay [2] deals with wild type Columbia Arabidopsis thaliana seeds. The assay can be described thus: Arabidopsis seed germination assay. The assay is classed as in vivo. The settings on record: Arabidopsis thaliana. As to the method: (§1) Prior to selecting a scaffold for optimization we conducted Arabidopsis seed germination assays to establish if the hits obtained are activity in vivo. Germination experiments were performed with surface sterilized wild type Columbia Arabidopsis thaliana seeds and abi1C (the abi1-1 allele isolated in the Columbia ecotype) plated onto 0.7% agar medium containing 1/2-x MS salts, 0.5% sucrose and differing concentrations of the test compounds. After 4d of stratification at 4° C., the plates were transferred to a growth chamber under continuous illumination and evaluated after 4 days.
To establish if the in vitro potency of Opa translates into improved activity in vivo, we measured the effects of ABA, QB, AMF4, Opa and 2e on Arabidopsis seed germination at a range of concentrations to infer quantitative measures or potency. Methods similar to that described in Example 3 are followed. The percentage of germinated seeds were recorded for each chemical treatment for each concentration in quadruplicate. EC50 values denote the concentrations at which 50% of seeds have been inhibited.

In assay [3] the test system is pyr1/pyl1, pyl8/pyl9 and abi1C mutants. The assay can be described thus: seed germination on receptor mutants and ABA signalling mutant abi1C. The assay is classed as in vivo, Arabidopsis. The settings on record: tested at twice the EC50. As to the method: as §1
Methods similar to example 3 were followed.

The target of assay [4] is T1, PYL2 (Arabidopsis thaliana, UniProt O80992).
T1 construct: 6xHis; made in house
T1 sequence (O80992 1-190): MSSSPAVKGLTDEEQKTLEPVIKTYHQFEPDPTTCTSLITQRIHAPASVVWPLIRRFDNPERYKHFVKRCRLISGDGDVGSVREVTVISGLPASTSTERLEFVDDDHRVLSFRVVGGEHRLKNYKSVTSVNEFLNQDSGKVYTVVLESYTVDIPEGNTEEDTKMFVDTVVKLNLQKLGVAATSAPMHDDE
T1 sequence (Q9CAJ0 180-511 partner): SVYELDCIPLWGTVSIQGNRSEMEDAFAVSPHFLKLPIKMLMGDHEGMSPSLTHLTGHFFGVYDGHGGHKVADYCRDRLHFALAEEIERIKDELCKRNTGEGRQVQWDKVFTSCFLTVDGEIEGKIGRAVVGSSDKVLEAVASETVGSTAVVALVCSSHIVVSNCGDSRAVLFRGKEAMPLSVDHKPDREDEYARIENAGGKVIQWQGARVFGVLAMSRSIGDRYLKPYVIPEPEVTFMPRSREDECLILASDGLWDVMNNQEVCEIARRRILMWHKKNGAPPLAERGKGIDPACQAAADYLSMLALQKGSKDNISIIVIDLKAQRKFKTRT
The assay can be described thus: receptor-mediated PP2C inhibition assay, pnPP substrate, PYL2. The assay is classed as biochemical. The procedure:
The potency and selectivity of ligand 10H4, a relatively potent member of scaffold 2, was characterized in separate experiments using an absorbance-based assay using the colorimetric substrate p-nitrophenyl phosphate (pNPP), as follows. Purified proteins (100 nM receptor, 50 nM HAB1) were pre-incubated in 160 μl assay buffer containing (100 mM Tris-HCl-pH7.9, 100 mM NaCl, 0.3 μg/mL BSA, 0.1% 2-mercaptoethanol, and 1 mM MnCl2) with ligands for 30 minutes at room temperature. Reactions were started by adding 40 μL of 25 mM p-NPP in assay buffer after which absorbance measurements were immediately collected at 405 nm on Tecan plate reader. The concentrations tested spanned 4 nM to 10 μM and the dose response data obtained was fit to a log (inhibitor) vs response-(variable slope) model using non-linear regression to infer the IC50S, using GraphPad Prism, to yield the IC50 values shown in FIG. 7.
8, no. 1, October 2017, p. 1183. • Daszkowska-Golec, Agata. […]

In assay [5] the test system is pooled ABA receptors (PYL1, PYL2, PYL4, PYL8, and maize receptor ZmPYLe) with PP2C HAB1. The assay can be described thus: pooled receptor activation assay (receptor/ligand-mediated inhibition of PP2C HAB1, 4-methylumbelliferyl phosphate). The assay is classed as biochemical, Arabidopsis; maize. The conditions noted are these: tested in duplicate at 20 μM. An excerpt: The angiosperm ABA receptor family is large and contains many receptors that cluster into 3 subfamilies. Multiple analyses have shown that agonists of subfamily III receptors are particularly efficacious as antitranspirants, however pan agonists or other new selective agonists may be valuable for crop enhancement. In principle, a docking hit molecule might interact with any or all ABA receptors, creating a large matrix of possible interactions and screening conditions. To expedite the process of screening for new ABA agonists, we developed a pooled receptor screening assay. To do this we selected phylogenetically diverse ABA receptors (PYL1, PYL2, PYL4, PYL8, and maize receptor ZmPYLe), pooled them, and assayed receptor/ligand-mediated inhibition of the PP2C HAB1. The Arabidopsis receptors and PP2C ΔN-HAB1 used were expressed and purified using previously described expression clones and methods (Okamoto et al.) PYL1, PYL2, PYL4, and PYL8 were expressed as 6×-His tags in pET28; ΔN-HAB1 was expressed as 6×-His tag as a truncated form lacking residues 1-179 in pETM-11. ZmPylE (GRMZM2G165567; ZmPYL8 in (He et al.)) was expressed as an MBP fusion protein in pMal-c and expressed and purified as described previously for PYL9 and PYL1 in reference (Okamoto et al.). Assays were conducted in a buffer containing 100 mM Tris-HCl-pH7.9, 100 mM NaCl, 30 μg/ml BSA, 0.1% 2-mercaptoethanol, 100 nM PYL1 and PYL2, 900 nM PYL4 and PYL8, 200 nM ZmPylE, 1 mM 4-methylumbelliferyl phosphate, and 20 μM test compound. The substrate was added ˜20 minutes after the other components had been mixed and fluorescence data collected after substrate addition using a Tecan Infinite F200 Pro fluorimeter. Control carrier solvent-only wells were included as a reference and %-PP2C activity calculated relative to this control. To validate this assay we tested multiple selective and pan-agonists to ensure that their activity could reliably be detected. […]

For the compound `N#Cc1ccc(CC(=O)NC2(C(=O)O)CCCCC2)cc1` [2b, 1-[2-(4-cyanophenyl)acetamido]cyclohexane-1-carboxylic acid], the “potency in receptor-mediated PP2C inhibition (in words)” value in assay [1] was “dramatically improves activity across all receptors tested”.

Regarding `N#Cc1ccc(CC(=O)NC2(C(=O)O)CCCCC2)cc1C1CC1` [2e, 1-[2-(4-cyano-3-cyclopropylphenyl)acetamido]cyclohexane-1-carboxylic acid], the “potency in receptor-mediated PP2C inhibition (in words)” value in assay [1] was “high potency across all receptors tested”. The test concentration (twice the EC50 for germination inhibition) in assay [2] (printed value is twice the EC50, used as test concentration on mutants, read-out: twice the concentrations determined as its EC50 (inhibition of germination) (converted)) was 220 nM. The “effect on germination in receptor mutant backgrounds” value (“effect on germination” for short) in assay [3] was “clearly reduced in the pyr1/pyl1 and pyl8/pyl9 mutant backgrounds”.

On to `CS(=O)(=O)NC(=O)C1(NC(=O)Cc2ccc(C#N)c(C3CC3)c2)CCCCC1` [2r], for which, in assay [4], the “activity on PYL2 (in words)” value is given as “modestly activity on PYL2”.

For `CC1=CC(=O)CC(C)(C)[C@@]1(O)/C=C/C(C)=C\C(=O)O` [ABA, Abscisic acid], in assay [5], the “activity in the pooled receptor assay” value was “active”. Besides, the pEC50 in assay [2] (read-out: twice the concentrations determined as its EC50 (inhibition of germination)) was 6.22. In addition, in assay [3], the “effect on germination” value was “clearly reduced in the pyr1/pyl1 and pyl8/pyl9 mutant backgrounds”.

Regarding `CCCN1C(=O)CCc2cc(NS(=O)(=O)Cc3c(F)c(F)c(C)c(F)c3F)ccc21` [AMF4], the “effect on germination” value in assay [3] was “only show diminished activity in the pyr1/pyl1 mutant”.

In the case of `O=S(=O)(NCc1ccccn1)c1ccc(Br)c2ccccc12` [pyrabactin], the “activity in the pooled receptor assay” value in assay [5] is “active”.

Consider `CCCN1C(=O)CCc2cc(NS(=O)(=O)Cc3ccc(C)cc3)ccc21` [quinabactin], for which the “activity in the pooled receptor assay” value in assay [5] was “active”. For the same compound, the “effect on germination” value in assay [3] is given as “only show diminished activity in the pyr1/pyl1 mutant”.
